Legend:
Assay in all cases: KINOMEscan
Type in all cases: binding
[1] = biological target: T1, IKKα (Homo sapiens, UniProt O15111)
T1 construct: purchased Eurofins DiscoverX, LLC; host or cells: E. coli (T7 phage) or HEK-293
T1 sequence (O15111 1-745): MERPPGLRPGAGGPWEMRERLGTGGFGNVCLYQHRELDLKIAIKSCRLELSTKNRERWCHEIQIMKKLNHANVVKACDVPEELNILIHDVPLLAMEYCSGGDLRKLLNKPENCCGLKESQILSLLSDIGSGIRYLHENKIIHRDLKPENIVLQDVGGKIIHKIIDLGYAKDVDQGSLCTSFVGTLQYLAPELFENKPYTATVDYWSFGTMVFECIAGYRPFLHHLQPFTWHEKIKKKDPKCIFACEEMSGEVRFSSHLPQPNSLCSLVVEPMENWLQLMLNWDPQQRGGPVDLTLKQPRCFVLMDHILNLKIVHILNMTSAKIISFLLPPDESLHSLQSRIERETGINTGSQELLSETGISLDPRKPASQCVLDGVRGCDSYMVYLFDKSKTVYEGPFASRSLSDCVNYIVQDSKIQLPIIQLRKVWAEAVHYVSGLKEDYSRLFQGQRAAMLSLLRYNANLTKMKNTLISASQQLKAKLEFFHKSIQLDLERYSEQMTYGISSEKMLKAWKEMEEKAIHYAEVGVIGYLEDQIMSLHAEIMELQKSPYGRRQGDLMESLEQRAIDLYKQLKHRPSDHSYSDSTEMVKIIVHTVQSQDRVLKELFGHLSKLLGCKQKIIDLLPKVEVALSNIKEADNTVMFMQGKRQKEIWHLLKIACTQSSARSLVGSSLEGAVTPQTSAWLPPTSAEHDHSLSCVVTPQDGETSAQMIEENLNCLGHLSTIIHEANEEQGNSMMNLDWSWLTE

[2] = biological target: T2, PIM2 (Homo sapiens, UniProt Q9P1W9)
T2 construct: purchased Eurofins DiscoverX, LLC; host or cells: E. coli BL21-derived host (T7 phage) or HEK-293
T2 sequence (Q9P1W9 whole entry): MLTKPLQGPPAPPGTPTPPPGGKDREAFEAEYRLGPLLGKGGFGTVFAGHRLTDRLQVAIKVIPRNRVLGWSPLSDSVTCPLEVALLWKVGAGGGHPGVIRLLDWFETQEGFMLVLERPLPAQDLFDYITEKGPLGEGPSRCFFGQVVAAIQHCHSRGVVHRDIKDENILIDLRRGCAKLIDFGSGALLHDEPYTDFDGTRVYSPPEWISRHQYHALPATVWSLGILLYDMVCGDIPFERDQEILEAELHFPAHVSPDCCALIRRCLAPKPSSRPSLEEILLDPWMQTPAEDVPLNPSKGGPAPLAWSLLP

[3] = biological target: T3, ULK2 (Homo sapiens, UniProt Q8IYT8)
T3 construct: purchased Eurofins DiscoverX, LLC; host or cells: E. coli BL21-derived host (T7 phage) or HEK-293
T3 sequence (Q8IYT8 1-1036): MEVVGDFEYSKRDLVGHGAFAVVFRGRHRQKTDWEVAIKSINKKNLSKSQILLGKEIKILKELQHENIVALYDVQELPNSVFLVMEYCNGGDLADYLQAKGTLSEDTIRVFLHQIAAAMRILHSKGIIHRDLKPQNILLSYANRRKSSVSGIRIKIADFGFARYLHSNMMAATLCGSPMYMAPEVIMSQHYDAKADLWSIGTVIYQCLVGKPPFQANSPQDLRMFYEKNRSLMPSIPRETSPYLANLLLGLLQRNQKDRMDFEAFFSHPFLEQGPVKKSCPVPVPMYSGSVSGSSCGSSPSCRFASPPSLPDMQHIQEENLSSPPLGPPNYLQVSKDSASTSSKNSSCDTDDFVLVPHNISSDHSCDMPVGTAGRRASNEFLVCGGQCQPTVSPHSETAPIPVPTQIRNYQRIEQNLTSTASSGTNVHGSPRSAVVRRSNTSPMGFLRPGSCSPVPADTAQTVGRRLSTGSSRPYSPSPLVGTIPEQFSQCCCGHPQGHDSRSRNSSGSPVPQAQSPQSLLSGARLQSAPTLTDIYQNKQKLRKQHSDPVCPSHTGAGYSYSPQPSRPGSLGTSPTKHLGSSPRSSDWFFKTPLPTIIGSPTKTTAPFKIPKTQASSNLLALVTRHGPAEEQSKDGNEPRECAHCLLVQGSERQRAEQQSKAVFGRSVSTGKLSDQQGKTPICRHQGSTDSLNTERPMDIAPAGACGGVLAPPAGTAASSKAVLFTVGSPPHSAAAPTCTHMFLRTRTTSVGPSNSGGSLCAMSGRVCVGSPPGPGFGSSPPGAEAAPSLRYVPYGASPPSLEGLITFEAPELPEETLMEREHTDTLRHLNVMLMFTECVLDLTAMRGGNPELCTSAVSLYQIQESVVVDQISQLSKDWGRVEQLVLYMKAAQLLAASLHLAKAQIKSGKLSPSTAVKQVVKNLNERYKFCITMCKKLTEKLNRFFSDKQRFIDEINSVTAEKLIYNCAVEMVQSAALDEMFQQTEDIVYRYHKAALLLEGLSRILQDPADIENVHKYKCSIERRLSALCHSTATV

[4] = biological target: T4, ABL1(E255K)-phosphorylated (Homo sapiens, UniProt P00519, E255K)
T4 construct: purchased Eurofins DiscoverX, LLC; host or cells: E. coli BL21-derived (T7 phage) or HEK-293
T4 sequence (P00519 whole entry E255K): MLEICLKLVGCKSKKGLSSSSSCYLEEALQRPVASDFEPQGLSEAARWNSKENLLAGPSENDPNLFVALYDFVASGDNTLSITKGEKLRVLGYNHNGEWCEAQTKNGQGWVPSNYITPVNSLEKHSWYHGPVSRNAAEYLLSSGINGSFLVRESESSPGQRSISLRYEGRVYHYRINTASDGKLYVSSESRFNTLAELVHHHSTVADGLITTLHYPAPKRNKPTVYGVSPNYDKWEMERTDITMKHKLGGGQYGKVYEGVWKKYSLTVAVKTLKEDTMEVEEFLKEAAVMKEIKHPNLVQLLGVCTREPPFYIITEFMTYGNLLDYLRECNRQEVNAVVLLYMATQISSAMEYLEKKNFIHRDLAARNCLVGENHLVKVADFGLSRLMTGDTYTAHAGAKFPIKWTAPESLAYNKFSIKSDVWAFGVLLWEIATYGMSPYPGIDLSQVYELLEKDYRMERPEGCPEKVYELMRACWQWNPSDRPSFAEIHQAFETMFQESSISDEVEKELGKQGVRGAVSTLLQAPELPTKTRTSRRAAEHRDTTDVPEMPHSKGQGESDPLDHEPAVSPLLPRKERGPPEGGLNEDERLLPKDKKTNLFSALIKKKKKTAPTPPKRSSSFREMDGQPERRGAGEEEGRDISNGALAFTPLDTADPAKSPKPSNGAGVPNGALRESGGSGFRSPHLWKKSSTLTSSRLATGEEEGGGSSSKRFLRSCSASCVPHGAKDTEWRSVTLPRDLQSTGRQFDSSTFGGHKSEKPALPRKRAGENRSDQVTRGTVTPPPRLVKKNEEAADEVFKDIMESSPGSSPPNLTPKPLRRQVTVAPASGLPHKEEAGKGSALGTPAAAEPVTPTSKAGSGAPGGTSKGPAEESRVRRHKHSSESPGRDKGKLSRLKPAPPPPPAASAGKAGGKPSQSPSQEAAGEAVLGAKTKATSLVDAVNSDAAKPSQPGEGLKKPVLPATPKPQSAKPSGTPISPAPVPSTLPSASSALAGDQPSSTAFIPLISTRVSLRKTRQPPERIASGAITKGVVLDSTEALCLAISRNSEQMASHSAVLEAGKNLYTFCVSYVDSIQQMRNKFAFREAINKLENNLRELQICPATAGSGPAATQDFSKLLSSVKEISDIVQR

[5] = biological target: T5, TSSK1B (Homo sapiens, UniProt Q9BXA7)
T5 construct: purchased Eurofins DiscoverX, LLC; host or cells: E. coli BL21-derived host (T7 phage) or HEK-293
T5 sequence (Q9BXA7 1-367): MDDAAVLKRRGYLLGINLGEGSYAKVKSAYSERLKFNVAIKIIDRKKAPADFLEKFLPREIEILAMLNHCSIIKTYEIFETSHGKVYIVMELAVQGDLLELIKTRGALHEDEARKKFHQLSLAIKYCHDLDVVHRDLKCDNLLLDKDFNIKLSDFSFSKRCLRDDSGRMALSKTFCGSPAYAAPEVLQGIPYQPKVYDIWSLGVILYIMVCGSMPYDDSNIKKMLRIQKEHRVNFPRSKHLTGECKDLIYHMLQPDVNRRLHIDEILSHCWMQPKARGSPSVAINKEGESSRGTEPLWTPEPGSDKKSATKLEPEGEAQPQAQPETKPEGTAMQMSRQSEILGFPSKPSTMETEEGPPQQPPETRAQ

## CC(C)Cn1ncc2cc(Cc3ccc(F)cc3F)c(C(=O)NCCN(C)C)cc21 [Compound 94, 5-(2,4-Difluorobenzyl)-N-(2-(dimethylamino)ethyl)-1-isobutyl-1H-indazole-6-carboxamide]
[1]
  RA @ 1000nM: 82%
  RA @ 10000nM: 87%
[2]
  RA @ 1000nM: 100%
  RA @ 10000nM: 100%
[3]
  RA @ 1000nM: 71%
  RA @ 10000nM: 88%
[4]
  RA @ 1000nM: 96%
  RA @ 10000nM: 55%
[5]
  RA @ 1000nM: 77%
  RA @ 10000nM: 89%

## CN(C)CCNC(=O)c1cc2c(cnn2CC2CCCCC2)cc1Cc1ccc(F)cc1F [Compound 95, 1-(Cyclohexylmethyl)-5-(2,4-difluorobenzyl)-N-(2-(dimethylamino)ethyl)-1H-indazole-6-carboxamide]
[1]
  RA @ 1000nM: 92%
  RA @ 10000nM: 75%
[2]
  RA @ 1000nM: 100%
  RA @ 10000nM: 100%
[3]
  RA @ 1000nM: 77%
  RA @ 10000nM: 75%
[4]
  RA @ 1000nM: 96%
  RA @ 10000nM: 93%
[5]
  RA @ 1000nM: 100%
  RA @ 10000nM: 79%
